Reference: US8207172B2 (Bayer Intellectual Property GmbH, priority 2004, dated 2012)
Counter-ions that a name gives are not always drawn.

How the values were obtained:
[1] = tested on: BT474 (human breast carcinoma); experiment: In vitro tumor cell proliferation assay (Cell Titer-Glo luminescent cell viability), BT474; type: cell-based; conditions: BT-474, 72 h, BT474 cells, 72 hours of drug exposure, ATP luminescence readout, read-out: IC50, anti-proliferative activity (inhibition of cell proliferation)
How it was run: (§1)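 Proliferation inhibition was measured as ATP-dependent luciferase signal after cells in RPMI with 10% FBS received test compound for 72 h at 37° C. Final concentrations spanned […] to 64 pM in 0.1% DMSO; IC50 values were derived.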

[2] = tested on: A431 cells (human epidermoid carcinoma); experiment: In vitro tumor cell proliferation assay (Cell Titer-Glo luminescent cell viability), A431; type: cell-based; conditions: A-431, 72 h, 72 hours of drug exposure, ATP luminescence readout, read-out: IC50, anti-proliferative activity (inhibition of cell proliferation)
How it was run: as §1

SMILES: COCCN(C)CCn1cc2c(n1)CCc1c-2sc2ncnc(Nc3ccc(F)c(Cl)c3)c12 [Example 10, N-(3-chloro-4-fluorophenyl)-2-{2-[(2-methoxyethyl)(methyl)amino]ethyl}-4,5-dihydro-2H-pyrimido[5′,4′:4,5]thieno[2,3-e]indazol-6-amine]
- IC50 [1]: ≤ 5 µM
- IC50 [2]: ≤ 5 µM

SMILES: CCN(CC)C[C@@H](O)Cn1ncc2c1CCc1c-2sc2ncnc(Nc3ccc(OCc4cccc(F)c4)c(Cl)c3)c12 [Example 168, (2R)-1-[6-({3-chloro-4-[(3-fluorobenzyl)oxy]phenyl}amino)-4,5-dihydro-3H-pyrimido[5′,4′:4,5]thieno[2,3-e]indazol-3-yl]-3-(diethylamino)propan-2-ol trifluoroacetate (salt)]
- IC50 [1]: ≤ 1 µM
- IC50 [2]: ≤ 50 µM

SMILES: CN1CCN(CCn2ncc3c2CCc2c-3sc3ncnc(Nc4ccc(OCc5cccc(C(F)(F)F)c5)c(Cl)c4)c23)CC1 [Example 319, N-(3-chloro-4-{[3-(trifluoromethyl)benzyl]oxy}phenyl)-3-[2-(4-methylpiperazin-1-yl)ethyl]-4,5-dihydro-3H-pyrimido[5′,4′:4,5]thieno[2,3-e]indazol-6-amine]
- IC50 [1]: ≤ 5 µM
- IC50 [2]: ≤ 5 µM

SMILES: CN1CCN(CCn2ncc3c2CCc2c-3sc3ncnc(Nc4ccc(OCc5cccc(F)c5)c(Cl)c4)c23)CC1 [Example 82, N-{3-chloro-4-[(3-fluorobenzyl)oxy]phenyl}-3-[2-(4-methylpiperazin-1-yl)ethyl]-4,5-dihydro-3H-pyrimido[5′,4′:4,5]thieno[2,3-e]indazol-6-amine]
- IC50 [1]: ≤ 1 µM
- IC50 [2]: ≤ 5 µM

SMILES: C#Cc1cccc(Nc2ncnc3sc4c(c23)CCc2nn(CCN3CCN(C)CC3)cc2-4)c1 [Example 51, N-(3-ethynylphenyl)-2-[2-(4-methylpiperazin-1-yl)ethyl]-4,5-dihydro-2H-pyrimido[5′,4′:4,5]thieno[2,3-e]indazol-6-amine]
- IC50 [1]: ≤ 50 µM
- IC50 [2]: ≤ 5 µM

SMILES: CCN1CCN(C(=O)Cn2ncc3c2CCc2c-3sc3ncnc(Nc4ccc(OCc5cccc(F)c5)c(Cl)c4)c23)CC1 [Example 202, N-{3-chloro-4-[(3-fluorobenzyl)oxy]phenyl}-3-[2-(4-ethylpiperazin-1-yl)-2-oxoethyl]-4,5-dihydro-3H-pyrimido[5′,4′:4,5]thieno[2,3-e]indazol-6-amine]
- IC50 [1]: ≤ 1 µM
- IC50 [2]: ≤ 5 µM

SMILES: OCCn1ncc2c1CCc1c-2sc2ncnc(Nc3ccc4c(cnn4Cc4ccccc4)c3)c12 [Example 310, 2-{6-[(1-benzyl-1H-indazol-5-yl)amino]-4,5-dihydro-3H-pyrimido[5′,4′:4,5]thieno[2,3-e]indazol-3-yl}ethanol]
- IC50 [1]: ≤ 1 µM
- IC50 [2]: ≤ 5 µM

SMILES: Cc1cc(Nc2ncnc3sc4c(c23)CCc2c-4cnn2CCN2CCN(C)CC2)ccc1OCc1cccc(F)c1 [Example 323, N-{4-[(3-fluorobenzyl)oxy]-3-methylphenyl}-3-[2-(4-methylpiperazin-1-yl)ethyl]-4,5-dihydro-3H-pyrimido[5′,4′:4,5]thieno[2,3-e]indazol-6-amine]
- IC50 [1]: ≤ 1 µM
- IC50 [2]: ≤ 5 µM

SMILES: OCCNCCn1cc2c(n1)CCc1c-2sc2ncnc(Nc3ccc4c(cnn4Cc4cccc(F)c4)c3)c12 [Example 281, 2-{[2-(6-{[1-(3-fluorobenzyl)-1H-indazol-5-yl]amino}-4,5-dihydro-2H-pyrimido[5′,4′:4,5]thieno[2,3-e]indazol-2-yl)ethyl]amino}ethanol]
- IC50 [1]: ≤ 1 µM
- IC50 [2]: ≤ 5 µM

SMILES: COCCNCCn1cc2c(n1)CCc1c-2sc2ncnc(Nc3ccc4c(cnn4Cc4cccc(F)c4)c3)c12 [Example 280, N-[1-(3-fluorobenzyl)-1H-indazol-5-yl]-2-{2-[(2-methoxyethyl)amino]ethyl}-4,5-dihydro-2H-pyrimido[5′,4′:4,5]thieno[2,3-e]indazol-6-amine]
- IC50 [1]: ≤ 1 µM
- IC50 [2]: ≤ 5 µM

SMILES: CNC[C@@H](O)Cn1ncc2c1CCc1c-2sc2ncnc(Nc3ccc(OCc4cccc(F)c4)c(Cl)c3)c12 [Example 166, (2R)-1-[6-({3-chloro-4-[(3-fluorobenzyl)oxy]phenyl}amino)-4,5-dihydro-3H-pyrimido[5′,4′:4,5]thieno[2,3-e]indazol-3-yl]-3-(methylamino)propan-2-ol trifluoroacetate (salt)]
- IC50 [1]: ≤ 1 µM
- IC50 [2]: ≤ 50 µM

SMILES: Fc1ccc(Nc2ncnc3sc4c(c23)CCc2nn(CCN3CCCC3)cc2-4)cc1Cl [Example 9, N-(3-chloro-4-fluorophenyl)-2-(2-pyrrolidin-1-ylethyl)-4,5-dihydro-2H-pyrimido[5′,4′:4,5]thieno[2,3-e]indazol-6-amine]
- IC50 [1]: ≤ 5 µM
- IC50 [2]: ≤ 5 µM

SMILES: Clc1cc(Nc2ncnc3sc4c(c23)CCc2n[nH]cc2-4)ccc1OCc1ccccn1 [Example 109, N-[3-chloro-4-(pyridin-2-ylmethoxy)phenyl]-4,5-dihydro-2H-pyrimido[5′,4′:4,5]thieno[2,3-e]indazol-6-amine]
- IC50 [1]: ≤ 1 µM
- IC50 [2]: ≤ 50 µM

SMILES: CN1CCN(CCn2ncc3c2CCc2c-3sc3ncnc(Nc4ccc(OCc5ccccn5)c(Cl)c4)c23)CC1 [Example 112, N-[3-chloro-4-(pyridin-2-ylmethoxy)phenyl]-3-[2-(4-methylpiperazin-1-yl)ethyl]-4,5-dihydro-3H-pyrimido[5′,4′:4,5]thieno[2,3-e]indazol-6-amine]
- IC50 [1]: ≤ 1 µM
- IC50 [2]: ≤ 5 µM

SMILES: OCCn1cc2c(n1)CCc1c-2sc2ncnc(Nc3ccc(OCc4ccccn4)c(Cl)c3)c12 [Example 99, 2-(6-{[3-chloro-4-(pyridin-2-ylmethoxy)phenyl]amino}-4,5-dihydro-2H-pyrimido[5′,4′:4,5]thieno[2,3-e]indazol-2-yl)ethanol]
- IC50 [1]: ≤ 1 µM
- IC50 [2]: ≤ 5 µM

SMILES: CCNC[C@@H](O)Cn1ncc2c1CCc1c-2sc2ncnc(Nc3ccc(OCc4cccc(F)c4)c(Cl)c3)c12 [Example 169, (2R)-1-[6-({3-chloro-4-[(3-fluorobenzyl)oxy]phenyl}amino)-4,5-dihydro-3H-pyrimido[5′,4′:4,5]thieno[2,3-e]indazol-3-yl]-3-(ethylamino)propan-2-ol trifluoroacetate (salt)]
- IC50 [1]: ≤ 1 µM
- IC50 [2]: ≤ 50 µM

SMILES: CN1CCN(CCn2cc3c(n2)CCc2c-3sc3ncnc(Nc4ccc(OC(F)(F)F)c(Cl)c4)c23)CC1 [Example 53, N-[3-chloro-4-(trifluoromethoxy)phenyl]-2-[2-(4-methylpiperazin-1-yl)ethyl]-4,5-dihydro-2H-pyrimido[5′,4′:4,5]thieno[2,3-e]indazol-6-amine]
- IC50 [1]: ≤ 1 µM
- IC50 [2]: ≤ 5 µM

SMILES: CN1CCN(CCn2cc3c(n2)CCc2c-3sc3ncnc(Nc4ccc(OCc5cccc(C(F)(F)F)c5)c(Cl)c4)c23)CC1 [Example 328, N-(3-chloro-4-{[3-(trifluoromethyl)benzyl]oxy}phenyl)-2-[2-(4-methylpiperazin-1-yl)ethyl]-4,5-dihydro-2H-pyrimido[5′,4′:4,5]thieno[2,3-e]indazol-6-amine]
- IC50 [1]: ≤ 5 µM
- IC50 [2]: ≤ 5 µM

SMILES: CN(C)[C@@H]1CCN(C(=O)Cn2cc3c(n2)CCc2c-3sc3ncnc(Nc4ccc(OCc5cccc(F)c5)c(Cl)c4)c23)C1 [Example 181, N-{3-chloro-4-[(3-fluorobenzyl)oxy]phenyl}-2-{2-[3-(dimethylamino)pyrrolidin-1-yl]-2-oxoethyl}-4,5-dihydro-2H-pyrimido[5′,4′:4,5]thieno[2,3-e]indazol-6-amine]
- IC50 [1]: ≤ 1 µM
- IC50 [2]: ≤ 5 µM

SMILES: CNC(=O)Cn1ncc2c1CCc1c-2sc2ncnc(Nc3ccc(OCc4cccc(F)c4)c(Cl)c3)c12 [Example 196, 2-[6-({3-chloro-4-[(3-fluorobenzyl)oxy]phenyl}amino)-4,5-dihydro-3H-pyrimido[5′,4′:4,5]thieno[2,3-e]indazol-3-yl]-N-methylacetamide]
- IC50 [1]: ≤ 1 µM
- IC50 [2]: ≤ 50 µM

SMILES: COCCNCCn1ncc2c1CCc1c-2sc2ncnc(Nc3ccc(OCc4cccc(F)c4)c(Cl)c3)c12 [Example 84, N-{3-chloro-4-[(3-fluorobenzyl)oxy]phenyl}-3-{2-[(2-methoxyethyl)amino]ethyl}-4,5-dihydro-3H-pyrimido[5′,4′:4,5]thieno[2,3-e]indazol-6-amine]
- IC50 [1]: ≤ 1 µM
- IC50 [2]: ≤ 5 µM

SMILES: CN1CCN(CCn2cc3c(n2)CCc2c-3sc3ncnc(Nc4ccc(OCc5ccccn5)c(Cl)c4)c23)CC1 [Example 102, N-[3-chloro-4-(pyridin-2-ylmethoxy)phenyl]-2-[2-(4-methylpiperazin-1-yl)ethyl]-4,5-dihydro-2H-pyrimido[5′,4′:4,5]thieno[2,3-e]indazol-6-amine]
- IC50 [1]: ≤ 1 µM
- IC50 [2]: ≤ 5 µM

SMILES: COCCN(C)CCn1ncc2c1CCc1c-2sc2ncnc(Nc3ccc(OCc4cccc(F)c4)c(Cl)c3)c12 [Example 261, N-{3-chloro-4-[(3-fluorobenzyl)oxy]phenyl}-3-{2-[(2-methoxyethyl)(methyl)amino]ethyl}-4,5-dihydro-3H-pyrimido[5′,4′:4,5]thieno[2,3-e]indazol-6-amine]
- IC50 [1]: ≤ 1 µM
- IC50 [2]: ≤ 50 µM

SMILES: OCC(CO)N1CCC(CCn2cc3c(n2)CCc2c-3sc3ncnc(Nc4ccc(OCc5cccc(F)c5)c(Cl)c4)c23)CC1 [Example 249, 2-(4-{2-[6-({3-chloro-4-[(3-fluorobenzyl)oxy]phenyl}amino)-4,5-dihydro-2H-pyrimido[5′,4′:4,5]thieno[2,3-e]indazol-2-yl]ethyl}piperidin-1-yl)propane-1,3-diol]
- IC50 [1]: ≤ 1 µM
- IC50 [2]: ≤ 5 µM

SMILES: CS(=O)(=O)CCNC[C@@H](O)Cn1cc2c(n1)CCc1c-2sc2ncnc(Nc3ccc(OCc4cccc(F)c4)c(Cl)c3)c12 [Example 154, (2R)-1-[6-({3-chloro-4-[(3-fluorobenzyl)oxy]phenyl}amino)-4,5-dihydro-2H-pyrimido[5′,4′:4,5]thieno[2,3-e]indazol-2-yl]-3-{[2-(methylsulfonyl)ethyl]amino} propan-2-ol trifluoroacetate (salt)]
- IC50 [1]: ≤ 1 µM
- IC50 [2]: ≤ 50 µM
